Patent US11613750B2, “Methods of reducing virus molecule levels” (priority 2019, dated 2023)

What was measured:
[1] = test system: HBsAg; conditions: HepG2.2.15 cells; for EC50: read-out: EC50, Extracell. HBsAg reduction
Method: (§1) Cell viability was assessed by ATP levels determined using the CellTiter-Glo reagent and the results normalized to the level in mock-treated cells. HBsAg levels were quantified using ELISA and the data normalized to the level in the mock-treated cells.
The cellular proteins GRP78/BIP, SRSF1, HNRNPA2B1, RPLP1, and RPLP2 were identified as having roles in HBV replication and infection. Various siRNAs and combinations thereof targeting the RNAs encoding these proteins were contacted with HepG2.2.15 cells at a final concentration of 7.5 nM.
The EC50 values of several siRNAs and combinations of siRNAs targeting HNRNPA2B1, GRP78, RPLP1, RPLP2, and/or SRSF1 were determined with respect to the ability to reduce HBsAg levels in HepG2.2.15 cells.
(§2) The ability of siRNAs targeting host factors that then results in the reduced production of multiple HBV molecules was evaluated by quantifying the amount of HBsAg, HBeAg, and Core protein produced by HepG2.2.15 cells after contacting with 10 nM of siRNAs that target HNRNPA2B1, GRP78, RPLP1, RPLP2, and SRSF1. We also contacted the cells with 5 nM of each set of siRNAs that targets both RPLP1 and RPLP2. The level of HBsAg, HBeAg, and Core were all determined using ELISAs.
(§3) The library of siRNAs of Example A5 were tested for the reduction of HBsAg secreted by HepG2.2.15 cells and in HBV virions.

[2] = test system: HepG2.2.15 cells; test: HepG2.2.15 cell viability, CellTiter-Glo; conditions: for CC50: read-out: CC50, HepG2.2.15 cell viability, highest concentration tested 80 nM
Method: as §1
The effects on cell viability were quantified using the CellTiter-Glo reagent. All data were normalized to the amount of protein produced by mock-treated cells.
as §3

[3] = test system: HBeAg; conditions: for HBeAg reduction HepG2.2.15 cells: 10 nM siRNA transfected into cells
Method: HBeAg in the cell culture media was assessed using ELISAs.
as §2, §3

[4] = test system: RPLP2 mRNA; test: Target mRNA reduction by RT-qPCR in HepG2.2.15 cells; type: cell-based, human; conditions: 10 nM siRNA
From the text: The siRNAs identified as described in Example A6 should function by a mechanism that includes being loaded in the RISC complex to cleave the cognate mRNA, leading to the degradation of the mRNA. To examine whether the siRNAs are effective in reducing the target mRNA, we used reverse transcription coupled with quantitative polymerase chain reaction (RT-qPCR) to assess the level of the target mRNA in HepG2.2.15 cells. All 32 siRNAs described in Table 2 reduced the mRNA by more than 75% (Table 3).

[5] = test system: RPLP2 protein; test: Target protein reduction by Western blot in HepG2.2.15 cells; type: cell-based, human; conditions: 10 nM siRNA, 72 h
Method: The host factors likely function in viral infection as proteins. Therefore, we determined whether the siRNAs could decrease the amounts of the target protein. Cell transfected with 10 nM of each siRNA for 72 h were lysed and the target proteins identified using Western blots probed with target-specific antibodies. The effective siRNAs described in Table 3 reduced the levels of the proteins by between 28 and 92% of the mock-treated samples. The reduction in the proteins is less than the reduction of the target mRNA, likely due to the proteins have prolonged half-life and that more time is needed for their degradation. […] We reason that this is due to RPLP1 and RPLP2 functioning as heterodimers such that a decrease of one protein increases the vulnerability of the other protein to degradation. Similar concomitant decrease of the proteins was reported by Campos et al. (17). Finally, the levels of two cellular proteins that are not targeted by the siRNAs, P54nrb and GAPDH, were unaffected.

[6] = test system: HCoV-OC43; test: OC43 virion RNA, Branched DNA assay, infected HCT8 cells; type: cell-based, human coronavirus OC43; conditions: for OC43 vRNA reduction siRNA and siGRP78: 10 nM siRNA along with 10 nM of siRNA targeting GRP78, HCT8 cells; for OC43 vRNA reduction: 10 nM siRNA, HCT8 cells
Method: The siRNAs were transfected in the HCT8 cells at a final concentration of 10 nM. A positive control for the inhibition of Coronavirus infection, Remdesivir (Rem), was used at 0.9 μM. The virion RNAs (vRNAs) were quantified using a Branched DNA assay specific for OC43 RNA.
The two siRNAs are those referred to by compound number (see Table 2) in the horizontal bar, along with siRNA targeting GRP78, siGRP78. A positive control for the inhibition of Coronavirus infection, Remdesivir (Rem), was used at 0.9 μM. The vRNAs were quantified using a Branched DNA assay specific for OC43 RNA.
The siRNAs listed in Table 2 were transfected into human colon epithelial HCT8 cells and the amount of OC43 virion produced was quantified. In these assays, the OC43 vRNA was quantified using a Branched DNA assay (QuantiGene gene expression assay: ThermoFisher). As a positive inhibitory control, the infected cells were treated with Remdesivir. […] Examples of the inhibition of OC43 vRNA are illustrated in FIG. 5A.
A combination of siRNAs targeting the host factor should more robustly reduce OC43 virion production. To illustrate this, HCT8 cells were transfected with 10 nM of siRNAs from Table 2 along with 10 nM of siRNA targeting GRP78. The virion RNAs produced were quantified using the Branched DNA assay. […] A combination of siRNAs targeting host factors GRP78, SRSF1, RPLP1 and RPLP2 can lead to significant reduction in the production of human Coronavirus virion RNA from infected cells.

Substance	EC50 [1] [nM]	CC50 [2] [nM]	HBeAg reduction HepG2.2.15 cells [3] [%]	Target RNA reduction in HepG2.2.15 cells [4] [%]	Target protein reduction in HepG2.2.15 cells [5] [%]	OC43 vRNA reduction siRNA and siGRP78 [6] [%]	OC43 vRNA reduction [6] [%]	HBsAg level, dose response ([1]; FIG. 5A)	cytotoxicity / cell viability, siRNA library ([2]; up to the highest concentration tested, 80 nM)	HBeAg level, siRNA library ([3]; HepG2.2.15 cells, Example A6, FIG. 5A)
49 (AAACAUUGAAGACGUCAUUTTAAUGACGUCUUCAAUGUUUTT; siRNA; Self-complementary hairpin strand, chemistry not given here, further chemistry not given here; listed as Homo sapiens) [compound 49]	0.026	> 80	32 ± 6	98 ± 1	59 ± 4	91 ± 3	–	–	–	–
51 (GAAGAUCUUGGACAGCGUGTTCACGCUGUCCAAGAUCUUCTT; siRNA; Self-complementary hairpin strand, chemistry not given here, further chemistry not given here; listed as Homo sapiens) [compound 51]	0.1	> 80	32 ± 4	98 ± 0	56 ± 5	90 ± 2	–	–	–	–
41 (AUGGGAUUUGGCCUUUUUGAUUUAUCAAAAAGGCCAAAUCCCAUUU; siRNA; Self-complementary hairpin strand, chemistry not given here, further chemistry not given here; listed as Homo sapiens) [compound 41]	0.208	> 80	40 ± 4	97 ± 1	58 ± 2	81 ± 7	89 ± 5	–	–	–
47 (UGGCCUUUUUGAUUAAAUUTTAAUUUAAUCAAAAAGGCCAAA; siRNA; Self-complementary hairpin strand, chemistry not given here, further chemistry not given here; listed as Homo sapiens) [compound 47]	0.07	> 80	38 ± 5	97 ± 3	67 ± 5	89 ± 2	–	–	–	–
48 (GCGCCAAGGACAUCAAGAATTUUCUUGAUGUCCUUGGCGCAA; siRNA; Self-complementary hairpin strand, chemistry not given here, further chemistry not given here; listed as Homo sapiens) [compound 48]	0.1	> 80	32 ± 5	97 ± 0	54 ± 8	88 ± 5	–	–	–	–
50 (CGACCGGCUCAACAAGGUUTTAACCUUGUUGAGCCGGUCGTC; siRNA; Self-complementary hairpin strand, chemistry not given here, further chemistry not given here; listed as Homo sapiens) [compound 50]	0.095	> 80	42 ± 5	98 ± 1	48 ± 2	91 ± 2	–	–	–	–
34 (GCUGAAUGGAAAAAACAUUGATTAAUGUUUUUUCCAUUCAGCUCTT; siRNA; Self-complementary hairpin strand, chemistry not given here, further chemistry not given here; listed as Homo sapiens) [compound 34]	0.15	> 80	74 ± 4	93 ± 1	62.5 ± 3	86 ± 5	86 ± 3	dose-dependent reduction of HBV S-antigen (HBsAg)	without affecting cell viability	inhibited the levels of HBsAg and HBeAg
40 (AGUCUGAAGAGUCAGAUGAUGUUCAUCAUCUGACUCUUCAGACUUU; siRNA; Self-complementary hairpin strand, chemistry not given here, further chemistry not given here; listed as Homo sapiens) [compound 40]	0.114	> 80	56 ± 3	98 ± 1	54 ± 2	79 ± 15	89 ± 5	–	–	–
38 (AGUGUACCUGCUGGUGGGGCUUUAGCCCCACCAGCAGGUACACUUU; siRNA; Self-complementary hairpin strand, chemistry not given here, further chemistry not given here; listed as Homo sapiens) [compound 38]	0.076	> 80	–	96 ± 1	55 ± 2	61 ± 14	39 ± 6	–	–	–
39 (AGAGGAGAAGAAAGAUGAGAAUUUUCUCAUCUUUCUUCUCCUCUUU; siRNA; Self-complementary hairpin strand, chemistry not given here, further chemistry not given here; listed as Homo sapiens) [compound 39]	0.103	> 80	59 ± 4	96 ± 1	48 ± 9	86 ± 6	91 ± 2	–	–	–
43 (GUAUCGAGGCGGACGACGACCUUGGUCGUCGUCCGCCUCGAUACUU; siRNA; Self-complementary hairpin strand, chemistry not given here, further chemistry not given here; listed as Homo sapiens) [compound 43]	0.182	> 80	70 ± 5	94 ± 2	45 ± 4	92 ± 2	94 ± 1	–	–	–
